What all share (type): cell-based
One assay deals with Cat OR5A1. As to the kind of experiment: CNG chAMPion assay, OR_9 (OR5A1), cat ortholog. Conditions: cat OR5A1, phase 3.
The target of another assay is T1, Human OR5A1 (Homo sapiens, UniProt Q8NGJ0).
T1 construct: expressed in transfected cells; host or cells: HEK293 PEAKrapid/RTP1s endo (reporter cell line A)
T1 sequence (Q8NGJ0 1-315): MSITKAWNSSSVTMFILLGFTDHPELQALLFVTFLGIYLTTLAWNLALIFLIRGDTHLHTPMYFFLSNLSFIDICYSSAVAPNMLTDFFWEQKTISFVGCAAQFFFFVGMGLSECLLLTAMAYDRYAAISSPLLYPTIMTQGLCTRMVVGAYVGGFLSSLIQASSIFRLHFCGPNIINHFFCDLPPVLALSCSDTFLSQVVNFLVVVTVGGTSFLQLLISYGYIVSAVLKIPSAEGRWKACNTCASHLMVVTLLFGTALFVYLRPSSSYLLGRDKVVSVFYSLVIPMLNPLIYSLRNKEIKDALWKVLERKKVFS
As to the kind of experiment: CRE-NanoLuc luciferase assay, OR_9 (OR5A1), human ortholog. Conditions: human OR5A1, phase 3.

Another assay has as its system Dog OR5A1. As to the kind of experiment: CNG chAMPion assay, OR_9 (OR5A1), dog ortholog. Conditions: dog OR5A1, phase 3. The text has this: This example refers to the functional expression of different feline and canine olfactory receptors (ORs). 20 OR sequences were selected, where 10 sequences have feline origins and the remaining 10 have canine origins. These ORs were subcloned into a modified expression vector suitable for the transient, functional expression of ORs. The transiently expressed receptors were then stimulated with various concentrations of different odorants aiming to deorphanize the feline and canine ORs. […] Functional expression of the different OR sets were transient in reporter cell line A or B. The transiently transfected ORs were stimulated with 3 concentrations (n=4) of different odorants (at least 3).
chAMPion (CNG channel) assay. […]
Twenty-four hours later, the cell medium was removed manually and cells were incubated in 20 μL/well coelenterazine (11 μM) in Tyrode buffer with 0 mM calcium for 3.5 h at 37° C. Plates were then read in a luminescence plate reader (FLIPR^TETRA, Molecular Devices) with the following camera settings: exposure time: 0.533 s, maximum gain. Luminescence was recorded for 1 min after addition of 10 μL/well compounds (3× solutions prepared in Tyrode buffer with 0 mM calcium), followed by an incubation period of 30 min at 37° C. Luminescence was again recorded for 1 min after addition of 20 μL/well Tyrode buffer with 10 mM CaCl2. […]

Protocol for Cat OR5A1: chAMPion (CNG channel) assay. HEK293/CNG/nat-Clytin/RTP1 s endo cells were transiently transfected with plasmids encoding the respective OR and were seeded at 20,000 cells/well in 25 μL/well complete growth medium in poly-D-lysine coated black, clear-bottom 384 MTPs.
Data were analyzed with the Screenworks® software (Molecular Devices, version 4.0.0.30). Luminescence values (in RLU) were exported as maximum RLU between 10 s and 40 s. In addition to using raw values, the data were also normalized to background signals (wells containing buffer only) and expressed as “Fold change” (mean value (n=2)/mean value of buffer wells (n=2)). Data analysis and plotting of graphs was carried out using Excel (Microsoft) and GraphPad Prism (GraphPad Software, Inc.).

Regarding `CCCCCOC(C)=O` [amyl acetate, Amyl acetate], the “receptor response (dose-response, fold change)” value in the assay on Cat OR5A1 was “weaker responses”.
The same measure, in the same setting: in the case of `CC(C)=CCCC(C)=CC=O` [citral, Citral] it was “no response”.
For the compound `CC(=O)/C=C/C1=C(C)CCCC1(C)C` [β-ionone, beta-Ionone], the “receptor response (dose-response, fold change)” value at Human OR5A1 is on record as “responds”; in the assay with Cat OR5A1, “strong response”. Moreover, the “EC50 (rank among the four compounds)” value in the assay with Dog OR5A1 is “lowest EC50”. Besides, the “Emax (rank among the four compounds)” value in the assay on Dog OR5A1 was “highest Emax”.
